The text below walks through data of patent US12421269B2, “SGLT2/DPP4 inhibitor and application thereof” (CGeneTech (Suzhou, China) CO., Ltd., priority 2019, dated 2025).

For data set [1], the target named is recombinant human dipeptidyl peptidase 4 (rhDPP4) (Homo sapiens, UniProt P27487). Nature of the data set: rhDPP4 inhibitor screening experiment. In kind it is biochemical. As to conditions: Gly-Pro-aminofluorescein substrate, 1 hour at room temperature. An excerpt:
To evaluate the inhibitory activity of compounds against recombinant human dipeptidyl peptidase 4 (rhDPP4) by measuring the half-inhibitory concentration (IC50) values of the compounds. In the experiment, rhDPP4 was used to catalyze the generation of […] from substrate, the substrate was a luminescent precursor […], and the substrate and luciferase were reacted to generate a light signal, the intensity of the light signal was proportional to the enzyme activity.
• 1) The gradient diluted compounds (4-fold fold-dilution, 10 assay concentrations) were transferred 250 nL into a 384-well plate (PerkingElmer-6007299) using a non-contact nano-acoustic pipetting system (ECHO), and dimethyl sulfoxide (DMSO) concentration was 0.5% in the final reaction system. Blank control wells (containing DMSO, substrate and 10 mM Tris-HCl) and positive control wells (containing DMSO, substrate and rhDPP4) were set up. • 2) The pre-dispensed frozen buffer containing luciferase was removed and restored to room temperature, and then the substrate was added to configure a working solution with a substrate concentration of 20 μM. RhDPP4 was prepared as a working solution of 0.2 ng/mL using 10 mM Tris-HCl (pH 8.0) aqueous solution. • 3) 25 μL of working solution containing 20 μM substrate and 25 μL of working solution containing 0.2 ng/mL rhDPP4 were added to a 384-well plate with the addition of the compound, then the mixture was centrifuged for 30 s at 1000 rpm, the plate was sealed with aluminum foil sealing film and incubated for 1 hour at room temperature. • 4) The intensity of the light signal was detected by EnVision, a multifunctional microplate reader. The raw data were used to calculate the inhibition of rhDPP4 activity by the compound. % of inhibition activity=100−(compound well signal value−blank control well signal value)/(positive control well signal value−blank control well signal value)*100. • The percent of inhibition was imported into GraphPad Prism software for data processing to derive the corresponding dose-effect curves and to derive the IC50 values of the tested compounds.

A further data set deals with T1, Human-SGLT2 (Homo sapiens, UniProt P31639).
T1 sequence (P31639 1-672): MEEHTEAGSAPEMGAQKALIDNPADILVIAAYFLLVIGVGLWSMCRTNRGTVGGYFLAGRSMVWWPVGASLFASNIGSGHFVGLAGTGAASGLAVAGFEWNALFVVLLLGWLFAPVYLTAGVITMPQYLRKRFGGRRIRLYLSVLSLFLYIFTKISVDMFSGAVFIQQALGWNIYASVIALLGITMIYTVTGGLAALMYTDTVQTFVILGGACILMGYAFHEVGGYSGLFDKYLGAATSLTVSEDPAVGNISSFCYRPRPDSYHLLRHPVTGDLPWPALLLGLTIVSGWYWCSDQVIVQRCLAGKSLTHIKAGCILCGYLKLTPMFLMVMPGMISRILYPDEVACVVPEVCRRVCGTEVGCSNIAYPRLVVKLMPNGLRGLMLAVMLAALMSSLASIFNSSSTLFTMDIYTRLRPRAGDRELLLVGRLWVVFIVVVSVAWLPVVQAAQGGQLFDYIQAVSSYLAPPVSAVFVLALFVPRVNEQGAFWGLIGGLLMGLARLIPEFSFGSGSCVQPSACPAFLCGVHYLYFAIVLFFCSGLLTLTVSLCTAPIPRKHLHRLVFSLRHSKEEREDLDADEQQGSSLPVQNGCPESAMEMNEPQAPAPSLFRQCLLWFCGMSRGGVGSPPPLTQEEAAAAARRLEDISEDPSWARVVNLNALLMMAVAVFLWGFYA
Nature of the data set: SGLT2 glucose transport assay ([14C]-labeled glucose uptake). The class given is cell-based. As to conditions: cells stably expressing Human-SGLT2, 37° C., 2 hours. As to the method: To test the effect of compounds on the glucose transport activity of SGLT2 transporters by measuring the amount of [^14C]-labeled glucose entering highly expressed Human-SGLT2 cells.
The cells stably expressing Human-SGLT2 used for the experiments were constructed by WuXi AppTec Shanghai. SGLT2 cells were plated in 96-well cell culture plates (Greiner) and cultured overnight at 5% CO2, 37° C.
Experimental buffer: 10 mM 4-hydroxyethylpiperazine ethanesulfonic acid (HEPES), 1.2 mM magnesium chloride (MgCl2), 4.7 mM potassium chloride (KCl), 2.2 mM calcium chloride (CaCl2) and 120 mM sodium chloride (NaCl).
Termination buffer: 10 mM 4-hydroxyethylpiperazine ethanesulfonic acid (HEPES), 1.2 mM magnesium chloride (MgCl2), 4.7 mM potassium chloride (KCl), 2.2 mM calcium chloride (CaCl2), 120 mM sodium chloride (NaCl) and 1 μM LX4211.
The compounds were diluted with 100% dimethyl sulfoxide (DMSO) at a starting concentration of 10 μM, 8 points of 5-fold serial gradient dilution was made.
6 μM [^14C]-labeled methyl α-D-glucopyranoside was prepared with experimental buffer.
Cells were treated with 49 μL of experimental buffer, 1 μL of gradient-diluted compound, and 50 μL of 6 μM [^14C]-isotope-labeled glucose solution at 37° C. for 2 hours.
The liquid in the wells was aspirated and the cells were washed 3 times with termination buffer.
The cells were lysed with 50 μL of 10% sodium hydroxide solution, and the cell lysate was aspirated into a scintillation tube, and 2 mL of scintillation solution was added.
Readings were taken with an isotope detector (Tricarb).
The data were calculated by GraphPad Prism 5.0 software using the formula: log (inhibitor) vs. response—Variable slope to obtain the IC50 values of the tested compounds, and the experimental results are shown in Table 5.

Data set [2] can be described thus: In vivo DMPK study in mice. As to conditions: male C57 mice; for Oral DNAUC (AUCPO/Dose): 10 mg/kg oral; for bioavailability / Cmax / clearance / half-life / Vd: mouse, plasma; for bioavailability: 1 mg/kg intravenous and 10 mg/kg oral, read-out: F % (oral bioavailability); for Cmax / clearance / half-life / Vd: single dose, 1 mg/kg intravenous or 10 mg/kg oral; for clearance: read-out: Cl (clearance rate); for half-life: read-out: T1/2 (half-life) (converted); for Vd: read-out: Vdss (volume of distribution). An excerpt: Experimental purpose: Male C57 mice were used as test animals to determine blood concentrations of compounds and assess pharmacokinetic behavior after a single dose.
Experimental procedure: Six healthy adult male C57 mice were selected, three of them for the intravenous injection group and three of them for the oral group. The compounds to be tested were mixed with an appropriate amount of intravenous injection group solvent (20% polyethylene glycol-400 (PEG400)/10% polyethylene glycol-15 hydroxystearate (solutol)/70% H2O), the mixture was vortexed and sonicated to obtain 1 mg/mL clarified solution, then the clarified solution was filtered through a microporous membrane and prepared for use; solvent for the oral group was 20% polyethylene glycol-400 (PEG400)/10% polyethylene glycol-15 hydroxystearate (solutol)/70% H2O, and the compounds to be tested were mixed with the solvent, then the mixture was vortexed and sonicated to obtain 1 mg/mL clarified solution. After 1 mg/kg intravenous administration or 10 mg/kg oral administration in mice, whole blood was collected for a certain period of time, then the plasma was prepared to obtain, and the drug concentration was analyzed by LC-MS/MS method, then the pharmacokinetic parameters were calculated using Phoenix WinNonlin software (Pharsight, USA).

Molecules are shown by their SMILES. pIC50: −log10 of the molar value.

Chain of recombinant human dipeptidyl peptidase 4 (rhDPP4) (P27487 whole entry): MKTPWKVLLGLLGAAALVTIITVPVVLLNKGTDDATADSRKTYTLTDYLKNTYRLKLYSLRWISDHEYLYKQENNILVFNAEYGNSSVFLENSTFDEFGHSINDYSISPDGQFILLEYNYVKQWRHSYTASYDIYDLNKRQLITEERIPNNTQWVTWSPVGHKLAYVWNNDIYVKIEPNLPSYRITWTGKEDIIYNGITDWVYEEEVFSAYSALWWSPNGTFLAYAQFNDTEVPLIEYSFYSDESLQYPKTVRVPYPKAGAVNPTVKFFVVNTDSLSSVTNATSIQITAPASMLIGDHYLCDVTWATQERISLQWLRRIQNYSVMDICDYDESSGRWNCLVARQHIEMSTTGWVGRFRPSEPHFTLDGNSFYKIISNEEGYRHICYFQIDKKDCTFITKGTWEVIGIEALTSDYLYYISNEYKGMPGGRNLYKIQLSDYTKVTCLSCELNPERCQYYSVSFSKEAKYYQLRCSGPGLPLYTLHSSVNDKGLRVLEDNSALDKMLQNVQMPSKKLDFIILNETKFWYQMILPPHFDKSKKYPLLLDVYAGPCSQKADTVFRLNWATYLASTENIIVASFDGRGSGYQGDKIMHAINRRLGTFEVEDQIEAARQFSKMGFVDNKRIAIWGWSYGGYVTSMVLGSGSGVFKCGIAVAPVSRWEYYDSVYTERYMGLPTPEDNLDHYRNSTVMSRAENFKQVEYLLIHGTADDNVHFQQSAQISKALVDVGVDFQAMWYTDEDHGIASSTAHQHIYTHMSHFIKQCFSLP

Consider `CS[C@H]1O[C@@H](c2ccc(F)c(Cc3ccc(O[C@@H]4CCN([C@H]5CO[C@H](c6cc(F)ccc6F)[C@@H](N)C5)C4)cc3)c2)[C@H](O)[C@@H](O)[C@@H]1O` [WX001], for which the negative-log IC50 (pIC50) in data set [1] was 7.51. The negative logarithm of the IC50 (pIC50) against Human-SGLT2 was 7.66. In data set [2], the “Oral DNAUC (AUCPO/Dose)” value worked out at 194.8 nM · h/mpk, the bioavailability amounted to 21.4%, the Cmax turned out to be 308 nM and the clearance is 31.4 mL/min/kg. Besides, in data set [2], the half-life is 7.39 h and the Vd was 12.2 L/kg.

`CS[C@H]1O[C@@H](c2cc(Cc3ccc(O[C@@H]4CCN([C@H]5CO[C@H](c6cc(F)ccc6F)[C@@H](N)C5)C4)cc3)c(F)cc2F)[C@H](O)[C@@H](O)[C@@H]1O` [WX006]: the pIC50 in data set [1] was 7.57. Further, the negative-log IC50 (pIC50) at Human-SGLT2 is 8.15. In data set [2], the “Oral DNAUC (AUCPO/Dose)” value is recorded as 151.3 nM · h/mpk, the bioavailability was found to be 18.7%, the Cmax was found to be 250 nM and the clearance turned out to be 29.1 mL/min/kg. Moreover, in data set [2], the half-life is 10.5 h and the Vd amounted to 12 L/kg.
